Test results published in patent publication US20260224597A1, “METHODS FOR ACTIVATING IMMUNE CELLS TO KILL BACTERIA” (The Texas A&M University System, priority 2023, published 2026).
Where two headings read alike, the source gives them in different places.

What was measured:
[1] = system: Mtb; test: microbe, parasite or virus in culture; type: cell-based, Mycobacterium tuberculosis
[2] = system: Mtb; test: Transmission electron microscopy of Mtb cell envelope thickness; type: cell-based, Mycobacterium tuberculosis; conditions: TEM, 1 μg/ml INH and/or 5 μM gallein for 14 days
[3] = biological target: IP6K1 (Homo sapiens, UniProt Q92551); conditions: Liao 2021; read-out: IC50 as to IP6K1; cited from earlier work
[4] = system: L. pneumophila; type: cell-based, Legionella pneumophila
[5] = system: L. monocytogenes; type: cell-based, Listeria monocytogenes
[6] = system: Mtb; test: microbe, parasite or virus in culture; conditions: Mycobacterium tuberculosis, Macrophage, in Homo sapiens, 48 h, read-out: reduction of the viability of Mtb
[7] = system: Mtb
[8] = system: human macrophages
[9] = biological target: PPK1 (Pseudomonas aeruginosa, UniProt P0DP44); conditions: in Pseudomonas aeruginosa, Neville et al., 2021; cited from earlier work
[10] = system: P. aeruginosa; conditions: in Caenorhabditis elegans, Neville et al., 2021; cited from earlier work
[11] = system: PPK2; conditions: in Pseudomonas aeruginosa, Neville et al., 2021; cited from earlier work

Sequence of IP6K1 (Q92551 whole entry): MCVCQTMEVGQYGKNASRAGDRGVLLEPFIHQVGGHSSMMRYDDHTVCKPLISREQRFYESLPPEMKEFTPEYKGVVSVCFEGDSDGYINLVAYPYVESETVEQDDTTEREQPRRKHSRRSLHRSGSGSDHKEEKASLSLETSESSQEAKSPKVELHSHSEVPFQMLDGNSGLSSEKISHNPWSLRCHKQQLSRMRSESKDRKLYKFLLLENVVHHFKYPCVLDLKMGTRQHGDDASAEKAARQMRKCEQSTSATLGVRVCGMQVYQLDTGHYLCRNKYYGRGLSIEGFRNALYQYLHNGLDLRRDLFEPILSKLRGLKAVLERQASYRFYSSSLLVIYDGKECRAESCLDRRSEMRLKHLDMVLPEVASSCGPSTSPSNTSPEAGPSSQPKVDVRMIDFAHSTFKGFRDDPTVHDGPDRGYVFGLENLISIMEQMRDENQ
Sequence of PPK1 (P0DP44 whole entry): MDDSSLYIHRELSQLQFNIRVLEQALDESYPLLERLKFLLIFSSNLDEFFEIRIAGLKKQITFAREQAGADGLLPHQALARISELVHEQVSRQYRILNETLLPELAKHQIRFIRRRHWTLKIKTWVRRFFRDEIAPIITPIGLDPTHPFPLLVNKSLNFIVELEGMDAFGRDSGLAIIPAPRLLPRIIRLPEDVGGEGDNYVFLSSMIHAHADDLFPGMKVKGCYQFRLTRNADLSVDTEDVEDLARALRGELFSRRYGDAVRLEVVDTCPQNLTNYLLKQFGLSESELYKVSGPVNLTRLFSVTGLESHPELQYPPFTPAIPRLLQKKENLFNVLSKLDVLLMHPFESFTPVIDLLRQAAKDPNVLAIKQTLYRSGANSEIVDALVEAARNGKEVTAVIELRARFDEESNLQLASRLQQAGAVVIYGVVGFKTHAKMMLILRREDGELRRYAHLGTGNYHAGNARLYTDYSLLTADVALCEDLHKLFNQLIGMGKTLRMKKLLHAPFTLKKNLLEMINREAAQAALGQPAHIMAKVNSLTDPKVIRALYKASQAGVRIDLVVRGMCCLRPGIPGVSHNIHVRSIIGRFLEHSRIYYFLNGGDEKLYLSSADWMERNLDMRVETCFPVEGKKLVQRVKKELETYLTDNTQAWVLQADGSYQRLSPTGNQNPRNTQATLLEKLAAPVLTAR

Structure (SMILES)	Mtb cell envelope thickness [2]	viability of ingested L. pneumophila compared to control [4]	viability of ingested L. monocytogenes compared to control [5]	number of ingested Mtb compared to control [7]	number of viable Mtb compared to control [7]	metabolic activity of macrophages infected with Mtb [8]	other results
NNC(=O)c1ccncc1 [INH, Isonicotinic acid hydrazide]	increased	–	–	–	–	–	Mtb growth [1]: partial but not complete reduction
Cn1sc(=O)n(Cc2ccccc2)c1=O [LI-1753]	–	–	–	–	–	–	IC50 [3]: 2150 nM
O=[N+]([O-])c1ccc(CNc2nc(NCc3cccc(C(F)(F)F)c3)nc3[nH]cnc23)cc1 [TNP, N6-[(4-nitrophenyl)methyl]-N2-[[3-(trifluoromethyl)phenyl]methyl]-9H-Purine-2,6-diamine]	–	reduced the viability	reduced the viability	increased	reduced the number of viable Mtb	did not significantly change	inhibition at 1 µM [6]: ~50%; metabolic activity of macrophages [8]: reduced the metabolic activity
O=C1OC2(c3ccccc31)c1ccc(O)c(O)c1Oc1c2ccc(O)c1O [gallein, 3′,4′,5′,6′-Tetrahydroxyspiro[isobenzofuran-1(3H),9′-(9H)xanthen]-3-one]	did not significantly affect	reduced the viability	reduced the viability	increased	reduced the number of viable Mtb	did not significantly change	Mtb growth compared to control [1]: slightly slowed growth; inhibition at 50 µM ([1]; Mycobacterium tuberculosis, 336 h, read-out: inhibition of Mtb growth): ~80%; PPK1 enzyme activity [9]: inhibits; ingested Mtb viability compared to control [7]: decreased ingested Mtb viability; viability of ingested Mtb compared to control [7]: reduced the viability; virulence of P. aeruginosa [10]: attenuates the virulence; metabolic activity of macrophages ([8]; human): None of the concentrations of MRS2279 and gallein significantly altered; PPK2 enzyme activity [11]: inhibits
